According to US7772263B2, “Compounds for the treatment of inflammatory disorders” (Schering Corporation, priority 2006, dated 2010):
Like-named read-outs stand apart in the source and are kept apart here.

Molecular target: T1, purified catalytic domain of recombinant human TACE (rhTACEc) (Homo sapiens, UniProt P78536, N452Q/S266A)
T1 construct: rhTACEc, Residue 215 to 477 with two mutation (S266A and N4520) and a 6×His tail; 6xHis (C); made in house; host or cells: baculovirus/Hi5 insect cells
Assay: TACE kinetic assay, cleavage of internally quenched fluorescent peptide substrate SPDL-3
Format: biochemical

[1] = TACE, class letters A-D, read-out: Ki Rating
[2] = rhTACEc 70 pM, 30 μM SPDL-3, 90 min pre-incubation at 25° C., read-out: Ki (nM), TACE inhibitory activity

T1 sequence (P78536 215-477 S266A/N452Q limits assumed): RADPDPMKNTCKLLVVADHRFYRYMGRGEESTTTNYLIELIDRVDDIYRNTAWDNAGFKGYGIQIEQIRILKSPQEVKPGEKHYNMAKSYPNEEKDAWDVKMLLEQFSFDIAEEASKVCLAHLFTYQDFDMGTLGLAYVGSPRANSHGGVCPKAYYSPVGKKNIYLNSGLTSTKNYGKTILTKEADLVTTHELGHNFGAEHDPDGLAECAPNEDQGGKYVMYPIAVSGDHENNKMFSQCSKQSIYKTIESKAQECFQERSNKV

| Ki [1] [nM] | Compound | other results |
| --- | --- | --- |
|  | COc1ccc2c(c1)C(=O)N(C[C@@]1(C#Cc3cncc(C)c3)NC(=O)NC1=O)C2 [Compound 1005] | Ki (TACE inhibition, Table 1001, read-out: Ki Rating): < 5 nM |
| < 5 | COc1ccc2c(c1)C(=O)N(C[C@@]1(C#Cc3cncc(Cl)c3)NC(=O)NC1=O)C2 [Compound 1006] |  |
| < 5 | COc1ccc2c(c1)C(=O)N(C[C@@]1(C#Cc3ccc(F)cc3C)NC(=O)NC1=O)C2 [Compound 1007] |  |
| < 5 | COc1ccc2c(c1)C(=O)N(C[C@@]1(C#Cc3ccc4nccnc4c3)NC(=O)NC1=O)C2 [Compound 1008] |  |
| < 5 | COc1ccc2c(c1)C(=O)N(C[C@@]1(C#Cc3ccc4nc(N)[nH]c4c3)NC(=O)NC1=O)C2 [Compound 1009] | Ki [2]: 1.33 nM |
| < 5 | COc1ccc2c(c1)C(=O)N(C[C@@]1(C#Cc3ccc4c(c3)COC4=O)NC(=O)NC1=O)C2 [Compound 1010] |  |
| < 5 | COc1ccc2c(c1)C(=O)N(C[C@@]1(C#Cc3ccc4nc(C)[nH]c4c3)NC(=O)NC1=O)C2 [Compound 1011] |  |
| < 5 | COc1ccc2c(c1)C(=O)N(C[C@@]1(C#Cc3ccc4[nH]cnc4c3)NC(=O)NC1=O)C2 [Compound 1012] |  |
| < 5 | COc1ccc2c(c1)C(=O)N(C[C@@]1(C#Cc3cnc4[nH]c(=O)[nH]c4c3)NC(=O)NC1=O)C2 [Compound 1013] |  |
| < 5 | COc1ccc2c(c1)C(=O)N(C[C@@]1(C#Cc3cccc4[nH]ncc34)NC(=O)NC1=O)C2 [Compound 1014] |  |
| < 5 | COc1ccc2c(c1)C(=O)N(C[C@@]1(C#Cc3cccc4cn[nH]c34)NC(=O)NC1=O)C2 [Compound 1015] |  |
| < 5 | COc1ccc2c(c1)C(=O)N(C[C@@]1(C#Cc3ccc4[nH]c(=O)sc4c3)NC(=O)NC1=O)C2 [Compound 1016] |  |
| < 5 | COc1ccc2c(c1)C(=O)N(C[C@@]1(C#Cc3ccc4c(c3)sc(=N)n4C)NC(=O)NC1=O)C2 [Compound 1017] |  |
| < 5 | COc1ccc2c(c1)C(=O)N(C[C@@]1(C#Cc3cccnc3C#N)NC(=O)NC1=O)C2 [Compound 1018] |  |
| < 5 | COc1ccc2c(c1)C(=O)N(C[C@@]1(C#Cc3ccc4c(c3)C(=O)NC4=O)NC(=O)NC1=O)C2 [Compound 1019] |  |
| > 100 | COc1ccc2c(c1)C(=O)N(C[C@]1(C#Cc3ccc(SC(F)(F)F)cc3)NC(=O)NC1=O)C2 [Compound 1036] |  |
| < 5 | O=C1NC(=O)[C@@](C#Cc2ccc(F)cc2)(CN2Cc3ccc(F)cc3C2=O)N1 [Compound 1037] |  |
| < 5 | COc1ccc2c(c1)C(=O)N(C[C@@]1(C#Cc3ccc(SC(F)(F)F)cc3)NC(=O)NC1=O)C2 [Compound 1038] |  |
| 5 to 25 | COc1ccc2c(c1)C(=O)N(C[C@@]1(C#Cc3ccc(S(=O)(=O)C(F)(F)F)cc3)NC(=O)NC1=O)C2 [Compound 1039] |  |
| < 5 | COc1ccc2c(c1)C(=O)N(C[C@@]1(C#Cc3cccc(O)c3)NC(=O)NC1=O)C2 [Compound 1040] |  |
| < 5 | O=C1NC(=O)[C@@](C#Cc2cccc(F)c2)(CN2Cc3ccc(F)cc3C2=O)N1 [Compound 1041] |  |
| < 5 | O=C1NC(=O)[C@@](C#Cc2ccc(F)cc2F)(CN2Cc3ccc(F)cc3C2=O)N1 [Compound 1042] |  |
| < 5 | COc1ccc(C#C[C@]2(CN3Cc4ccc(OC)cc4C3=O)NC(=O)NC2=O)cc1 [Compound 1043] |  |
| < 5 | COc1ccc2c(c1)C(=O)N(C[C@@]1(C#Cc3cccc(C)c3)NC(=O)NC1=O)C2 [Compound 1044] |  |

| Ki [1] [nM] | Compound | other results |
| --- | --- | --- |
| < 5 | COc1ccc2c(c1)C(=O)N(C[C@@]1(C#Cc3ccc(C#N)cc3)NC(=O)NC1=O)C2 [Compound 1045] |  |
| < 5 | CCOc1cccc(C#C[C@]2(CN3Cc4ccc(OC)cc4C3=O)NC(=O)NC2=O)c1 [Compound 1046] |  |
| < 5 | COc1ccc2c(c1)C(=O)N(C[C@@]1(C#Cc3ccc4c(c3)CCO4)NC(=O)NC1=O)C2 [Compound 1047] |  |
| < 5 | COc1ccc2c(c1)C(=O)N(C[C@@]1(C#Cc3cccc(CO)c3)NC(=O)NC1=O)C2 [Compound 1048] |  |
| < 5 | COc1ccc2c(c1)C(=O)N(C[C@@]1(C#Cc3ccc(Cl)s3)NC(=O)NC1=O)C2 [Compound 1049] |  |
| < 5 | CCOc1ccc(C#C[C@]2(CN3Cc4ccc(OC)cc4C3=O)NC(=O)NC2=O)cc1 [Compound 1050] |  |
| 25 to 100 | O=C1NC(=O)[C@](C#Cc2cccc(F)c2)(CN2Cc3ccc(F)cc3C2=O)N1 [Compound 1051] |  |
| 25 to 100 | O=C1NC(=O)[C@](C#Cc2ccc(F)cc2F)(CN2Cc3ccc(F)cc3C2=O)N1 [Compound 1052] |  |
| < 5 | COc1ccc2c(c1)C(=O)N(C[C@@]1(C#Cc3ccc4oc(C)cc4c3)NC(=O)NC1=O)C2 [Compound 1053] |  |
| < 5 | COc1ccc2c(c1)C(=O)N(C[C@@]1(C#Cc3cc(Cl)ccc3OC)NC(=O)NC1=O)C2 [Compound 1054] |  |
| < 5 | COCc1cccc(C#C[C@]2(CN3Cc4ccc(OC)cc4C3=O)NC(=O)NC2=O)c1 [Compound 1055] |  |
| < 5 | COc1ccc2c(c1)C(=O)N(C[C@@]1(C#Cc3c(OC)ccc4c(C#N)cccc34)NC(=O)NC1=O)C2 [Compound 1056] |  |
| < 5 | COc1ccc2c(c1)C(=O)N(C[C@@]1(C#Cc3ccc(OC(C)C)cc3)NC(=O)NC1=O)C2 [Compound 1057] |  |
| < 5 | COc1ccc2c(c1)C(=O)N(C[C@@]1(C#Cc3ccc(OCC4CC4)cc3)NC(=O)NC1=O)C2 [Compound 1058] |  |
| < 5 | COc1ccc2c(c1)C(=O)N(C[C@@]1(C#Cc3cccc(COCC4CC4)c3)NC(=O)NC1=O)C2 [Compound 1059] |  |
| < 5 | COc1ccc2c(c1)C(=O)N(C[C@@]1(C#Cc3ccc(C(C)=O)s3)NC(=O)NC1=O)C2 [Compound 1060] |  |
| < 5 | COc1ccc2c(c1)C(=O)N(C[C@@]1(C#Cc3ccc(C(C)O)s3)NC(=O)NC1=O)C2 (stereo partly shown) [Compound 1061] |  |
| < 5 | COc1ccc2c(c1)C(=O)N(C[C@@]1(C#Cc3ccccc3C)NC(=O)NC1=O)C2 [Compound 1062] |  |
| < 5 | COc1ccc2c(c1)C(=O)N(C[C@@]1(C#Cc3cncc(O)c3)NC(=O)NC1=O)C2 [Compound 1063] |  |
| < 5 | COc1ccc2c(c1)C(=O)N(C[C@@]1(C#Cc3ccc(C#N)s3)NC(=O)NC1=O)C2 [Compound 1064] |  |
| < 5 | COc1ccc2c(c1)C(=O)N(C[C@@]1(C#Cc3ccc(C(=O)NC4CC4)cc3)NC(=O)NC1=O)C2 [Compound 1065] |  |
| > 100 | COc1ccc2c(c1)C(=O)N(C[C@]1(C#Cc3cncc(O)c3)NC(=O)NC1=O)C2 [Compound 1066] |  |
| > 100 | COc1ccc2c(c1)C(=O)N(C[C@]1(C#Cc3ccc(C(=O)NC4CC4)cc3)NC(=O)NC1=O)C2 [Compound 1067] |  |
| > 100 | COc1ccc2c(c1)C(=O)N(C[C@]1(C#Cc3ccc(C#N)s3)NC(=O)NC1=O)C2 [Compound 1068] |  |

| Ki [1] [nM] | Compound | other results |
| --- | --- | --- |
| < 5 | COc1ccc2c(c1)C(=O)N(C[C@@]1(C#Cc3ccc4[nH]c(=O)[nH]c4c3)NC(=O)NC1=O)C2 [Compound 1069] |  |
| < 5 | COc1ccc2c(c1)C(=O)N(C[C@@]1(C#Cc3csc(CN)c3)NC(=O)NC1=O)C2 [Compound 1070] |  |
| < 5 | COc1ccc2c(c1)C(=O)N(C[C@@]1(C#Cc3cc(Cl)c(Br)s3)NC(=O)NC1=O)C2 [Compound 1071] |  |
| < 5 | COc1ccc2c(c1)C(=O)N(C[C@@]1(C#Cc3ccc(CO)s3)NC(=O)NC1=O)C2 [Compound 1072] |  |
| > 100 | COc1ccc2c(c1)C(=O)N(C[C@]1(C#Cc3ccc(C(C)N)cc3)NC(=O)NC1=O)C2 (stereo partly shown) [Compound 1073] |  |
| > 100 | CNCc1cc(C#C[C@@]2(CN3Cc4ccc(OC)cc4C3=O)NC(=O)NC2=O)cs1 [Compound 1074] |  |
| > 100 | COc1ccc2c(c1)C(=O)N(C[C@]1(C#Cc3ccc(C(C)O)cc3)NC(=O)NC1=O)C2 (stereo partly shown) [Compound 1075] |  |
| < 5 | COc1ccc2c(c1)C(=O)N(C[C@@]1(C#Cc3ccc([C@H](C)N)cc3)NC(=O)NC1=O)C2 [Compound 1076] |  |
| < 5 | CNCc1cc(C#C[C@@]2(CN3Cc4ccc(OC)cc4C3=O)NC(=O)NC2=O)cs1 [Compound 1077] |  |
| < 5 | COc1ccc2c(c1)C(=O)N(C[C@@]1(C#Cc3ccc(C(C)O)cc3)NC(=O)NC1=O)C2 (stereo partly shown) [Compound 1078] |  |
| < 5 | COc1ccc2c(c1)C(=O)N(C[C@@]1(C#Cc3cnccc3CO)NC(=O)NC1=O)C2 [Compound 1079] |  |
| < 5 | COc1ccc2c(c1)C(=O)N(C[C@@]1(C#Cc3sccc3Cl)NC(=O)NC1=O)C2 [Compound 1080] |  |
| > 100 | CON=Cc1ccc(C#C[C@@]2(CN3Cc4ccc(OC)cc4C3=O)NC(=O)NC2=O)cc1 [Compound 1081] |  |
| < 5 | CO/N=C(/C)c1ccc(C#C[C@]2(CN3Cc4ccc(OC)cc4C3=O)NC(=O)NC2=O)s1 [Compound 1082] |  |
| < 5 | CO/N=C(\C)c1ccc(C#C[C@]2(CN3Cc4ccc(OC)cc4C3=O)NC(=O)NC2=O)s1 [Compound 1083] |  |
| < 5 | CON=Cc1ccc(C#C[C@]2(CN3Cc4ccc(OC)cc4C3=O)NC(=O)NC2=O)s1 [Compound 1084] |  |
| < 5 | CO/N=C/c1cccc(C#C[C@]2(CN3Cc4ccc(OC)cc4C3=O)NC(=O)NC2=O)c1 [Compound 1085] |  |
| < 5 | CON=Cc1ccc(C#C[C@]2(CN3Cc4ccc(OC)cc4C3=O)NC(=O)NC2=O)cc1 [Compound 1086] |  |
| < 5 | COc1ccc2c(c1)CCN(CC1(C#Cc3cccnc3)NC(=O)NC1=O)C2=O (stereo not shown) [Compound 1087] |  |
| 5 to 25 | COc1ccc2c(c1)CCN(CC1(C#Cc3ccc(Cl)s3)NC(=O)NC1=O)C2=O (stereo not shown) [Compound 1088] |  |
| < 5 | COc1ccc2c(c1)C(=O)N(C[C@@]1(C#Cc3cccc(C=NO)c3)NC(=O)NC1=O)C2 [Compound 1089] |  |
| < 5 | COc1ccc2c(c1)C(=O)N(C[C@@]1(C#Cc3ccc(C(C)=NO)s3)NC(=O)NC1=O)C2 [Compound 1090] | Ki [2]: 0.3 nM |
| < 5 | COc1ccc2c(c1)C(=O)N(C[C@@]1(C#Cc3ccc(C=NO)cc3)NC(=O)NC1=O)C2 [Compound 1091] |  |
